Experimental data taken from ChEMBL document CHEMBL1201862, “PubChem BioAssay data set” (2004).
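In this assay, cells in 96-well plates receive the compound at five concentrations for 48 hours. Endpoints are linearly interpolated between the surrounding concentrations. Abbreviation: GI50, concentration required for 50% inhibition of growth.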 Active and inactive are the calls of the source. No stated cut-off is given here; in the data, active = GI50 up to about 1.1 µM and inactive = higher.

Key:
Assay in all cases: growth of human tumour cells (NCI), 48 h
K562 = tested on: K562
SK-OV-3 = tested on: SK-OV-3
786-0 = tested on: 786-0
OVCAR-8 = tested on: OVCAR-8
NCI-H226 = tested on: NCI-H226
NCI/ADR-RES = tested on: NCI/ADR-RES
ACHN = tested on: ACHN
OVCAR-3 = tested on: OVCAR-3
HOP-92 = tested on: HOP-92
MCF7 = tested on: MCF7
IGROV-1 = tested on: IGROV-1
SF-268 = tested on: SF-268
HT-29 = tested on: HT-29
SW-620 = tested on: SW-620
A498 = tested on: A498
SK-MEL-5 = tested on: SK-MEL-5
NCI-H522 = tested on: NCI-H522
OVCAR-4 = tested on: OVCAR-4
Hs-578T = tested on: Hs-578T
OVCAR-5 = tested on: OVCAR-5

| SMILES | GI50 (K562) | GI50 (SK-OV-3) | GI50 (786-0) | GI50 (OVCAR-8) | GI50 (NCI-H226) | GI50 (NCI/ADR-RES) | GI50 (ACHN) | GI50 (OVCAR-3) | GI50 (HOP-92) | GI50 (MCF7) | GI50 (IGROV-1) | GI50 (SF-268) | GI50 (HT-29) | GI50 (SW-620) | GI50 (A498) | GI50 (SK-MEL-5) | GI50 (NCI-H522) | GI50 (OVCAR-4) | GI50 (Hs-578T) | GI50 (OVCAR-5) |
| --- | --- | --- | --- | --- | --- | --- | --- | --- | --- | --- | --- | --- | --- | --- | --- | --- | --- | --- | --- | --- |
| Cn1c(-c2ccc(/N=N/Nc3ccc(-c4n[nH]c(=S)n4C)cc3)cc2)n[nH]c1=S | 2.82 µM (inactive) | 20.2 µM (inactive) | 52 µM (inactive) | 4.6 µM (inactive) | 5.36 µM (inactive) | > 100 µM (inactive) | 1.99 µM (inactive) | 33.3 µM (inactive) | 2.91 µM (inactive) | 12.1 µM (inactive) | 10.2 µM (inactive) | 16.5 µM (inactive) | > 100 µM (inactive) | > 100 µM (inactive) | 24.9 µM (inactive) | 3.01 µM (inactive) | 4.05 µM (inactive) | > 100 µM (inactive) | 32.1 µM (inactive) | > 100 µM (inactive) |
| N#CCCN(CCC#N)c1ccc(/C=C2\SC(=S)NC2=O)cc1Br | > 100 µM (inactive) | 28.6 µM (inactive) | 37.8 µM (inactive) | 68.5 µM (inactive) | > 100 µM (inactive) | > 100 µM (inactive) | 67.9 µM (inactive) | > 100 µM (inactive) | 50.5 µM (inactive) | > 100 µM (inactive) | 72.1 µM (inactive) | 20.9 µM (inactive) | > 100 µM (inactive) | > 100 µM (inactive) | 33.3 µM (inactive) | > 100 µM (inactive) | 76 µM (inactive) | 85.1 µM (inactive) | 0.598 µM (active) | > 100 µM (inactive) |
| N#CC(C#N)=C1SC(=N\c2ccccc2)/C(=N/c2ccccc2)N1c1ccccc1 | 2.3 µM (inactive) | > 100 µM (inactive) | 14.8 µM (inactive) | 22.6 µM (inactive) | 23.4 µM (inactive) | 26.4 µM (inactive) | 20 µM (inactive) | 2.37 µM (inactive) | 6.82 µM (inactive) | 13.4 µM (inactive) | 13.9 µM (inactive) | 19.3 µM (inactive) | 24.2 µM (inactive) | 3.28 µM (inactive) | > 52.2 µM (inactive) | 14.3 µM (inactive) | 1.94 µM (inactive) | 13.2 µM (inactive) | 25.3 µM (inactive) | 20.7 µM (inactive) |
| Cc1cccc2nc3cccc(C(=O)NCCC[N+](C)(CCCNC(=O)c4cccc5nc6cccc(C)c6nc45)Cc4c([N+](=O)[O-])ncn4C)c3nc12 | 25.4 µM (inactive) | 44.8 µM (inactive) | 4.07 µM (inactive) | 0.0859 µM (active) | 0.787 µM (active) | 38.6 µM (inactive) | 0.136 µM (active) | 22 µM (inactive) | 23.9 µM (inactive) | 0.436 µM (active) | 11.1 µM (inactive) | 2.43 µM (inactive) | 0.187 µM (active) | 0.143 µM (active) | 0.979 µM (active) | 1.95 µM (inactive) | 2.1 µM (inactive) | 29 µM (inactive) | > 1100 µM (inactive) | 1.91 µM (inactive) |
| CCN(CC)C(=S)/N=C(\SC(=S)N(CC)CC)c1ccccc1 | 1.29 µM (inactive) | 47.3 µM (inactive) | > 65 µM (inactive) | 56 µM (inactive) | 28.5 µM (inactive) | 35.5 µM (inactive) | > 68.2 µM (inactive) | 28.2 µM (inactive) | > 100 µM (inactive) | 3.6 µM (inactive) | 21.4 µM (inactive) | 41.6 µM (inactive) | 0.392 µM (active) | > 66.8 µM (inactive) | > 95.3 µM (inactive) | 0.569 µM (active) | 0.119 µM (active) | 27.3 µM (inactive) | 35.4 µM (inactive) | > 80 µM (inactive) |
